Source: US8637511B2, “Aminopyrimidines useful as kinase inhibitors” (Vertex Pharmaceuticals Incorporated, priority 2005, dated 2014)
Where two headings read alike, the source gives them in different places.

Key:
Aurora-2 (Aurora A) = target: T1, Aurora-2 (Aurora A) (Homo sapiens, UniProt O14965); test: Aurora-2 (Aurora A) inhibition assay, coupled enzyme; assay type: biochemical
T1 sequence (O14965 1-403): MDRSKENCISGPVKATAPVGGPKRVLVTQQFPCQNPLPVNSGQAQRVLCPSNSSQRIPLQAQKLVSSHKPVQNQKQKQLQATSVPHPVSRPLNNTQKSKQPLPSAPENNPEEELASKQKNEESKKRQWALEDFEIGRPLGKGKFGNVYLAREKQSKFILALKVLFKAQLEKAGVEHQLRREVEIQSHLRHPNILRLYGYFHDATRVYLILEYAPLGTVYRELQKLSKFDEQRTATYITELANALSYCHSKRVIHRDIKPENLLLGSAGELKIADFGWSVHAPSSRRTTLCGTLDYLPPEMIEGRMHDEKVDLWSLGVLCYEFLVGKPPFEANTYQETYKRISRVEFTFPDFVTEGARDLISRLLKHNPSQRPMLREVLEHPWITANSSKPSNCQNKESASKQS
Procedure: Assays were carried out in a mixture of 100 mM Hepes (pH7.5), 10 mM MgCl2, 1 mM DTT, 25 mM NaCl, 2.5 mM phosphoenolpyruvate, 300 μM NADH, 30 μg/ml pyruvate kinase and 10 μg/ml lactate dehydrogenase. […] Assays were carried out at 30° C. and in the presence of 40 nM Aurora-2.
The plate was preincubated for 10 minutes at 30° C. and the reaction initiated by addition of 10 μl of Aurora-2. Initial reaction rates were determined with a Molecular Devices SpectraMax Plus plate reader over a 10 minute time course. IC50 and Ki data were calculated from non-linear regression analysis using the Prism software package (GraphPad Prism version 3.0cx for Macintosh, GraphPad Software, San Diego Calif., USA).

Colo205 cells = test: Analysis of cell proliferation and viability; assay type: cell-based; settings: Homo sapiens, read-out: IC50 value
Procedure: Colo205 cells were seeded in 96 well plates and serially diluted compound was added to the wells in duplicate. Control groups included untreated cells, the compound diluent (0.1% DMSO alone) and culture medium without cells.
To measure proliferation, 3 h prior to the end of the experiment 0.5 μCi of 3H thymidine was added to each well. Cells were then harvested and the incorporated radioactivity counted on a Wallac microplate beta-counter. Cell viability was assessed using Promega CellTiter 96AQ to measure MTS conversion. Dose response curves were calculated using either Prism 3.0 (GraphPad) or SoftMax Pro 4.3.1 LS (Molecular Devices) software.

JAK3 = target: T2, JAK3 (Homo sapiens, UniProt P52333); test: biochemical
T2 sequence (P52333 1-1124): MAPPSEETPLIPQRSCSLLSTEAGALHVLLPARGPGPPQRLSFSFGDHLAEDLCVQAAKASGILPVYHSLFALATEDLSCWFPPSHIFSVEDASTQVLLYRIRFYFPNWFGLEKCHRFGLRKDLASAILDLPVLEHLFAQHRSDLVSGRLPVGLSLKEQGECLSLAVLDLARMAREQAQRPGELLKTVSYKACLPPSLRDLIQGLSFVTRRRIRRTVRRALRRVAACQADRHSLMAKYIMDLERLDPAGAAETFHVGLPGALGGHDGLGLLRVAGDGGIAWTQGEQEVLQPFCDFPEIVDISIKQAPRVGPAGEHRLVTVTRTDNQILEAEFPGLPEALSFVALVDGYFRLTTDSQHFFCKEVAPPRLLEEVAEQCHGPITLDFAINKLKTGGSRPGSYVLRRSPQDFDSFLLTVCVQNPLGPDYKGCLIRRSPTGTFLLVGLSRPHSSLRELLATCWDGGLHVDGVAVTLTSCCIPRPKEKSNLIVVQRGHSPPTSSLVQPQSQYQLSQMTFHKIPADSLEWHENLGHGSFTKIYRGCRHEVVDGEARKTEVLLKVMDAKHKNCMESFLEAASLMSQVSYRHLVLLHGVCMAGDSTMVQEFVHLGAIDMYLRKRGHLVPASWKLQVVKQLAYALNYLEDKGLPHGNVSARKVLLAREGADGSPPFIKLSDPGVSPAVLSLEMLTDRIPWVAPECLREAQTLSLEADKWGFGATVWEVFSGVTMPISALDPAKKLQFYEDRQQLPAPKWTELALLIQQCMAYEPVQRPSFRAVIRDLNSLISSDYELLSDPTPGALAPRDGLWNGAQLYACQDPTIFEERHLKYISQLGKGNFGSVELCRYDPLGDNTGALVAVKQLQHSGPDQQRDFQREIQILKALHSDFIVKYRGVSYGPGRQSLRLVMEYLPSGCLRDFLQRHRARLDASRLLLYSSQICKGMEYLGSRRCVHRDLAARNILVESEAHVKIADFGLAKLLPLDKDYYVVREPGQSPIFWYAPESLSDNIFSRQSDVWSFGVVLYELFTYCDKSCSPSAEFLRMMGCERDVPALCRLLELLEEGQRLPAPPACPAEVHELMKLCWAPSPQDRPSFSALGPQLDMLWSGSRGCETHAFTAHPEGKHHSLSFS

Aurora-1 (Aurora B) = Aurora-1 (Aurora B) (Homo sapiens, UniProt Q96GD4); test: Aurora-1 (Aurora B) inhibition assay (radiometric); assay type: biochemical; settings: read-out: Aurora B kinase Ki value
Procedure: An assay buffer solution was prepared which consisted of 25 mM HEPES (pH 7.5), 10 mM MgCl2, 0.1% BSA and 10% glycerol. […] To 22 μL of the Aurora-B solution, in a 96-well plate, was added 2 μl of a compound stock solution in DMSO and the mixture allowed to equilibrate for 10 minutes at 25° C. The enzyme reaction was initiated by the addition of 16 μl stock [γ-^33P]-ATP solution (˜20 nCi/μL) prepared in assay buffer, to a final assay concentration of 800 μM. The reaction was stopped after 3 hours by the addition of 16 μL 500 mM phosphoric acid and the levels of ^33P incorporation into the peptide substrate were determined by the following method.
A phosphocellulose 96-well plate (Millipore, Cat no. MAPHNOB50) was pre-treated with 100 μL of a 100 mM phosphoric acid prior to the addition of the enzyme reaction mixture (40 μL). The solution was left to soak on to the phosphocellulose membrane for 30 minutes and the plate subsequently washed four times with 200 μL of a 100 mM phosphoric acid. […] Levels of non-enzyme catalyzed background radioactivity were determined by adding 16 μL of the 500 mM phosphoric acid to control wells, containing all assay components (which acts to denature the enzyme), prior to the addition of the [γ-^33P]-ATP solution. Levels of enzyme catalyzed. ^33P incorporation were calculated by subtracting mean background counts from those measured at each inhibitor concentration. […] Ki values were calculated from initial rate data by non-linear regression using the Prism software package (Prism 3.0, Graphpad Software, San Diego, Calif.).

[1] = COLO 205, Colo205 cells, incubated for 96 hours
[2] = read-out: Aurora A kinase Ki value
[3] = COLO 205, Colo205 cells, incubated for 72 hours

Sequence of Aurora-1 (Aurora B) (Q96GD4 whole entry): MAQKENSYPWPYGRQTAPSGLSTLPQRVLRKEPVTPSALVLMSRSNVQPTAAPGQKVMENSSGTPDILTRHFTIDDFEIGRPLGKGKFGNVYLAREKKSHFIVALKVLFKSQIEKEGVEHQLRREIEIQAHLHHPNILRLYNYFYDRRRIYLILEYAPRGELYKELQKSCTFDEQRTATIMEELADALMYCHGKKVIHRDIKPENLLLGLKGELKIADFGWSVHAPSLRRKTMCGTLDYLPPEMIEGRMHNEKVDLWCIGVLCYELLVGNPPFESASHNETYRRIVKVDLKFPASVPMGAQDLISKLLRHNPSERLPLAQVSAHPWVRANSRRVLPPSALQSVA

| Compound | IC50 (Colo205 cells; [1]) [nM] | Ki (JAK3) [nM] | Ki (Aurora-1 (Aurora B)) [nM] | IC50 (Colo205 cells; [3]) [nM] | other results |
| --- | --- | --- | --- | --- | --- |
| Cc1cc(Nc2cc(N3CCC3)nc(Sc3ccc(C(=O)Nc4ccc(Cl)cc4)cc3)n2)n[nH]1 [Compound 21] | > 1000 | ≤ 10 | 50 to 2000 | – | Ki (Aurora-2 (Aurora A)): 5 to 200 nM |
| Cc1cc(Nc2cc(N3CCC3)nc(Sc3ccc(NC(=O)c4ccc(Oc5ccccc5)cc4Cl)cc3)n2)[nH]n1 [Compound 87] | – | 500 to 2000 | ≤ 10 | 30 to 200 | Ki (Aurora-2 (Aurora A); [2]): ≤ 1 nM |
| Cc1cc(Nc2cc(N3CC(O)(C4CC4)C3)nc(Sc3ccc(NC(=O)C4CCCC4)cc3)n2)[nH]n1 [Compound 104] | ≤ 50 | 10 to 500 | – | – | – |
| O=C(Nc1ccc(Sc2nc(Nc3cc(C4CC4)[nH]n3)cc(N3CC(O)(C4CC4)C3)n2)cc1)C1CC1 [Compound 105] | ≤ 50 | ≤ 10 | – | – | – |
| Cc1cc(Nc2cc(N3CC(O)(C4CC4)C3)nc(Sc3ccc(NC(=O)C4CC4)cc3F)n2)[nH]n1 [Compound 110] | ≤ 50 | ≤ 10 | – | – | – |
| Cc1cc(Nc2cc(N3CC(O)(C4CC4)C3)nc(Sc3ccc(NC(=O)C4CC4(F)F)cc3)n2)[nH]n1 (stereo not drawn) [Compound 113] | – | ≤ 10 | – | ≤ 30 | – |
| Cc1cc(Nc2cc(N3CC(F)(C4CC4)C3)nc(Sc3ccc(NC(=O)C4CC4)cc3)n2)n[nH]1 [Compound 128] | – | 10 to 500 | – | – | IC50 (Colo205 cells; COLO 205, 72 h): 30 to 200 nM; IC50 (Colo205 cells; COLO 205, 96 h): ≤ 50 nM |
| Cc1cc(Nc2cc(N3CC(F)(C4CC4)C3)nc(Sc3ccc(NC(=O)CC(F)(F)F)cc3)n2)[nH]n1 [Compound 135] | – | ≤ 10 | – | – | IC50 (Colo205 cells; COLO 205, 72 h): ≤ 30 nM; IC50 (Colo205 cells; COLO 205, 96 h): ≤ 50 nM |
| Cc1cc(Nc2cc(N3CCC3)nc(Sc3ccc(NC(=O)c4cccc(CN(C)C)c4)cc3)n2)[nH]n1 [Compound 138] | 50 to 1000 | 500 to 2000 | 50 to 2000 | – | – |
| Cc1cc(Nc2cc(N3CC(F)(C4CC4)C3)nc(Sc3ccc(NC(=O)C4CC4)cc3F)n2)n[nH]1 [Compound 170] | – | 10 to 500 | – | ≤ 30 | – |
| Cc1cc(Nc2cc(N3CC(F)(C4CC4)C3)nc(Sc3ccc(NC(=O)CC4CC4)cc3)n2)[nH]n1 [Compound 171] | – | 500 to 2000 | – | 30 to 200 | – |
| Cc1cc(Nc2cc(N3CC(F)(C4CC4)C3)nc(Sc3ccc4c(c3)CN(CC(F)(F)F)C4=O)n2)[nH]n1 [Compound 179] | – | – | ≤ 10 | 30 to 200 | Ki (Aurora-2 (Aurora A); [2]): ≤ 1 nM; Ki (JAK3; read-out: JAK3 Ki value): 10 to 500 nM |
| Cc1cc(Nc2cc(N3CC(O)(C4CC4)C3)nc(Oc3ccc4nc(C)sc4c3)n2)[nH]n1 [Compound 180] | – | ≤ 10 | 10 to 50 | 30 to 200 | Ki (Aurora-2 (Aurora A); [2]): ≤ 1 nM |
| Cc1cc(Nc2nc(Sc3ccc(NC(=O)c4ccccc4Cl)cc3)nc(N3CCC3)c2F)[nH]n1 [Compound 192] | – | 500 to 2000 | 10 to 50 | > 200 | Ki (Aurora-2 (Aurora A); [2]): 1 to 5 nM |
| Cc1cc(Nc2cc(N3CC(F)(C4CC4)C3)nc(Sc3ccc(NC(=O)C4CC4(F)F)cc3)n2)[nH]n1 (stereo not drawn) [Compound 194] | – | 10 to 500 | – | ≤ 30 | – |
| Cc1cc(Nc2cc(N3CC(F)(C4CC4)C3)nc(Sc3ccc(NC(=O)CC(F)(F)F)nc3)n2)[nH]n1 [Compound 211] | – | ≤ 10 | – | – | IC50 (Colo205 cells; COLO 205, 72 h): ≤ 30 nM |
